{
  "source": "patent US20090324500A1",
  "about": "“SCREEN FOR INFLAMMATORY RESPONSE MODULATORS” (priority 2006, published 2009)",
  "test_system": "neutrophils",
  "test": "Tail transection injury in transgenic MPO:GFP zebrafish larvae, neutrophil counts at the site of injury",
  "format": "in vivo",
  "from_the_text": "AB strain zebrafish from existing aquarium stocks were maintained according to standard protocols. A BAC containing approx 130 kB of 5′ promoter sequence to the MPO gene was identified (zC91B8). This BAC was modified to contain an in-frame GFP sequence beginning at the translation start site of the MPO gene by recombinase activity as previously described (Lee, E. C. et al (2001) Genomics 73, 56-65). EL250 cells required for the recombination step were a kind gift of Dr. Neal Copeland, National Cancer Institute, Frederick, […]., USA. Insertion of the GFP sequence was confirmed by co-insertion of a kanamycin resistance gene, which in turn was flanked by FRT sites leading to its easy removal before introduction into the zebrafish. As part of this process a vector was created consisting of a truncated portion of the Bluescript vector, into which we had blunt cloned a construct consisting of GFP and the FRT-flanked Kanamycin resistance gene, all of which was flanked by MPO homology arms. Using this construct, we were able to add a Nuclear Localising Sequence corresponding to that used in the Clontech vector pEYFPnuc by PCR and self ligation.\nThe modified BACs were injected into fertilised AB zebrafish embryos at the 1-2 cell stage, and larvae screened at 36-48 hours for the presence of fluorescence. Fluorescent larvae were grown to maturity and either in- or out-crossed to identify germ cell carriage of the transgene.\nA BAC containing over 100 kb of sequence 5′ to the Zebrafish MPO promoter was identified and modified to contain an in frame GFP sequence (FIG. 3). This was then injected into zebrafish embryos at the 1-cell stage and a transgenic line created. GFP expression recapitulates the expression of myeloperoxidase in cells whose morphology is consistent with neutrophil granulocytes (see FIG. 4). When these fish are injured, neutrophils accumulate at the site of injury over time (FIGS. 5 and 6).\nNeutrophil number at the site of injury following tail transection can be assessed either by manual counting (FIG. 7a) or by automated image analysis (FIG. 7b).\nManipulation of the inflammatory response in transgenic zebrafish has been performed exemplifying the role of manipulation of granulocyte apoptosis in regulating the resolution of inflammation. […] P<0.05 for t=24, zVD.fmk treated vs all other groups (1 way ANOVA with Bonferroni post test correction).\nIn FIG. 8b counts of fluorescent cells in individual larvae were performed for fish in the presence or absence of the bacterial product Lipopolysaccharide (LPS). LPS was added at 6 hours post injury (hpi), and counts made at 6 and 24 hpi. […] In FIG. 8c, Pyocyanin (a bacterial pigment with pro-apoptotic effects on neutrophils) was added at 4 hpi, and counts made at 8 hpi.",
  "data": [
    {"molecule": "Cn1c2cccc(=O)c-2nc2ccccc21", "note": "[Pyocyanin]", "values": [
      {"measurement": "absolute cell counts (neutrophil numbers)", "setting": "added at 4 hpi, counts at 8 hpi, FIG. 8c", "value": "reduce neutrophil numbers"}
    ]},
    {"molecule": "CC(C)[C@H](NC(=O)OCc1ccccc1)C(=O)NC(CC(=O)O)C(=O)CF", "note": "(stereo partly shown) [zVD.fmk]", "values": [
      {"measurement": "neutrophil numbers at the inflammatory site (resolution of inflammation)", "setting": "between 6 hours and 24 hours after injury, FIG. 8a, P<0.05 at t=24 vs all other groups", "value": "persistence of neutrophil numbers"},
      {"measurement": "effect on granulocyte apoptosis", "setting": "transgenic zebrafish, FIG. 8a", "value": "delays apoptosis"}
    ]},
    {"molecule": "Lipopolysaccharide [LPS]", "values": [
      {"measurement": "% reduction in neutrophil numbers", "setting": "added at 6 hpi, counts at 6 and 24 hpi, vs untreated fish, p<0.05, FIG. 8b", "value": "significantly lower"}
    ]}
  ]
}
